Source: article PMC8262356, “SLC26A6-selective inhibitor identified in a small-molecule screen blocks fluid absorption in small intestine” (JCI Insight, 2021)

Key:
CaCC = experiment: Short-circuit current in well-differentiated HBE cells, ATP response; format: cell-based, human; details: 25 μM pretreatment
Experimental: (§1) PAT1inh-B01 selectivity was studied by testing its effects on related SLC26A family anion transporters and the Cl^– channel TMEM16A. These measurements used a similar Cl^–/I^– exchange protocol, but FRT cells separately expressed each of the SLC26A family members or TMEM16A. […] PAT1inh-B01 selectivity was also tested by short-circuit current (Isc) in well-differentiated human bronchial epithelial (HBE) cells, which have a complex ion transport mechanism that includes cystic fibrosis transmembrane conductance regulator (CFTR), epithelial Na^+ channel (ENaC), and Ca^+2-activated chloride channels (CaCCs) ([13]). […] Potential PAT1inh-B01 cytotoxicity was studied in FRT cells.
(§2) Figure 3 PAT1inh-B01 selectivity and cytotoxicity. […] Cl^–/I^– exchange or I^– influx measured in FRT cells coexpressing YFP and SLC26A isoforms or TMEM16A, with data shown for 25 μM PAT1inh-B01, DMSO vehicle control, and 500 μM niflumic acid (positive control for SLC26A transporters) or 10 μM TMinh-23 (positive control for TMEM16A). […] (C) (left) Short-circuit current (Isc) in well-differentiated HBE cells measured in the absence (top) and presence (bottom) of 25 μM PAT1inh-B01. […]
(§3) YFP-based cellular assays of slc26a3, slc26a4, SLC26A9, and TMEM16A function were performed as described previously ([7]). […] The activities of ENaC, CFTR, and CaCC were determined using well-differentiated HBE cells as described previously ([13]). […]

SLC26A9 = target: T1, SLC26A9 (Homo sapiens, UniProt Q7LBE3); experiment: Selectivity: Cl-/I- exchange in FRT cells coexpressing YFP and SLC26A9; format: cell-based; details: 25 μM
T1 construct: expressed in transfected cells; host or cells: FRT cells coexpressing YFP
T1 sequence (Q7LBE3 1-791): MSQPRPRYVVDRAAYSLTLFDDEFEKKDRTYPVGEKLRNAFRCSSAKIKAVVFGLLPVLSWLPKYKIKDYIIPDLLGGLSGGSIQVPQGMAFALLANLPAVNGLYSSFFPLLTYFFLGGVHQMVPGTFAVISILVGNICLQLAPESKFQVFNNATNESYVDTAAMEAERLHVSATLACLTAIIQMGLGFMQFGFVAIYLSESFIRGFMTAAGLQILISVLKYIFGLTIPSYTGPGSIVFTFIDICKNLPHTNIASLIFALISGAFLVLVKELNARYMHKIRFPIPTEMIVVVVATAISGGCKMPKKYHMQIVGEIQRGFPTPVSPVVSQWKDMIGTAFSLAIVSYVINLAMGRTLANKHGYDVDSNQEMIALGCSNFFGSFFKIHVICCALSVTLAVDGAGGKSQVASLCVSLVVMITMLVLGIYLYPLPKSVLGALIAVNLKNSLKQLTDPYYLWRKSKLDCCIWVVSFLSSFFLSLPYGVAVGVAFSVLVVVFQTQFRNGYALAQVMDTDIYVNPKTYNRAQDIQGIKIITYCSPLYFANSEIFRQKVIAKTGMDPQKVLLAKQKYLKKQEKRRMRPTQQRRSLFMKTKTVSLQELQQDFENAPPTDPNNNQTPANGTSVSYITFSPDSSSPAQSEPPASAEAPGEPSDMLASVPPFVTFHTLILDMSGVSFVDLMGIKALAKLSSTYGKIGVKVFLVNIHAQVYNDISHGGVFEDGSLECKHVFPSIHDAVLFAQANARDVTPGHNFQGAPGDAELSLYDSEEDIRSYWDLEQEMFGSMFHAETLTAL
Experimental: as §1, §2, §3

- inhibition of SLC26A9 (SLC26A9): did not significantly inhibit
SMILES: Cc1c(Br)c(C(F)(F)F)nn1CC(=O)N1CCc2nc3cc(-c4ccccc4)[nH]n3c(=O)c2C1 [PAT1inh-B01]
- effect on CaCC activity (Isc response to ATP) (CaCC): no significant effect
